Patent US20260234137A1, “BICYCLIC ENHANCERS OF THE PARTICULATE GUANYLYL CYCLASE RECEPTOR A” (University of Florida Research Foundation, Incorporated, priority 2022, published 2026)
pEC50, pIC50: −log10 of the molar value. Entries after “also recorded” stand apart in the source; their conditions may differ. Like-named read-outs stand apart in the source and are kept apart here.

Experiments:
[1] = biological target: T1, human GC-A (Homo sapiens, UniProt P16066); assay: cGMP potentiation (HTRF) in human GC-A overexpressing HEK293 cells with EC20 ANP; type: cell-based; details: for pIC50: Table 3, additional compounds, modulation of pGC-A; for Emax: HEK293
T1 construct: host or cells: HEK293
T1 sequence (P16066 33-1061): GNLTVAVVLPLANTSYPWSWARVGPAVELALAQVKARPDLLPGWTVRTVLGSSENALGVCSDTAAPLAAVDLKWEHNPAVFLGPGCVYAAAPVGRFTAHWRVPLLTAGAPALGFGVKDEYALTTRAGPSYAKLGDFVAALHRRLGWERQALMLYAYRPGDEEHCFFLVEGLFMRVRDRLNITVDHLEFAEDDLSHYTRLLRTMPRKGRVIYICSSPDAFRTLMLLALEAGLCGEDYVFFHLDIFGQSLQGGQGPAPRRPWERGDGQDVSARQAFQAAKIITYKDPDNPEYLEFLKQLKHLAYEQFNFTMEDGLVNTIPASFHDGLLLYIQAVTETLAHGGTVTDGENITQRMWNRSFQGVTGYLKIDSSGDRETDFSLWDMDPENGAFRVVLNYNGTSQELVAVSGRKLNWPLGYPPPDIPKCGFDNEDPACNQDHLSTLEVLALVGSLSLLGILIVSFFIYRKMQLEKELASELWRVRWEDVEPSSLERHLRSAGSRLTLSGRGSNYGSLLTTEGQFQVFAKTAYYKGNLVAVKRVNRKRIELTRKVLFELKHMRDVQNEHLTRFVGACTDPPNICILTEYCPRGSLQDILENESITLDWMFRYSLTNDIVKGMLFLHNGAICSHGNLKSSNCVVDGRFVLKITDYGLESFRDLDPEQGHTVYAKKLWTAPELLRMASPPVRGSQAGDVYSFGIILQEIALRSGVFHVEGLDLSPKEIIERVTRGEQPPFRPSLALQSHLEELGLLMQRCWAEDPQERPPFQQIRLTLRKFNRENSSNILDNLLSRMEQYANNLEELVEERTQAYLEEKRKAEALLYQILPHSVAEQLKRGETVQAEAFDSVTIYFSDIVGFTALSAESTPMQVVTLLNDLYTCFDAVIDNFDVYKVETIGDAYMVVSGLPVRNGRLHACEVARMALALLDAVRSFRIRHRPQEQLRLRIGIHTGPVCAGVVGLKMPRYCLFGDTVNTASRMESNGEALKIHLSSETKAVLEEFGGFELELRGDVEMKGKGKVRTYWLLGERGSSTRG
T1 sequence (P01160 124-151 partner limits assumed): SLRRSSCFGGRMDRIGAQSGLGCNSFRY
Method: Test compounds were evaluated for potentiation of cGMP in human GC-A overexpressing HEK293 cells (Cardiorenal Research Laboratory, Mayo Clinic). Test compounds at 10 mM DMSO stock concentration were dispensed into 384 well small volume white plates using Tecan D300e digital dispenser starting at 5 μM concentration and diluted 2-fold for 10-point concentration response. Wells were backfilled with DMSO such that the final concentration of DMSO in all wells was maintained at 0.3% DMSO. Atrial natriuretic peptide (ANP, Phoenix Pharmaceuticals) peptide ANP was prepared as working stock aliquots at 5 μM in phosphate-buffered solution (PBS) with 0.1% bovine serum albumin (BSA) and diluted to […] in buffer+Tween20 at 0.3% and added to plates to a final concentration of 20 pM (EC20). GC-A cells in suspension […] in OptiMem media (11058-021) supplemented with 2% fetal bovine serum were plated at 1×10^6 cells/mL and assay plates were spun at 1000 rpm for 30 sec and incubated at RT for 30 min. GC-A-mediated activation of cGMP production was measured using cGMP CisBio detection homogenous time-resolved florescence (HTRF) competition assay using labeled-cGMP in human GC-A-overexpressing HEK293 cells. 5 μL of d-2 acceptor was dispensed into each well followed by addition of 5 μL of Anti-cGMP Eu-Cryptate antibody donor and plates were spun at 1000 rpm for 30 sec and incubated in the dark at RT for 1 hr. HTRF florescence was read on the ClarioStar microplate reader (BMG). A 100% response was determined from wells in the absence of compound and presence of saturating concentration of ANP (10 nM), and 0% response was determined from wells containing an EC20 concentration of ANP determined for each new lot of ANP. EC20 values of ANP were maintained in the range of 15-30 pM across all assay plates tested.
Test compounds were tested in the absence of ANP to determine agonist activity.

[2] = biological target: hERG channel (Homo sapiens, UniProt Q12809); assay: hERG binding / selectivity over hERG
Sequence of hERG channel (Q12809 whole entry): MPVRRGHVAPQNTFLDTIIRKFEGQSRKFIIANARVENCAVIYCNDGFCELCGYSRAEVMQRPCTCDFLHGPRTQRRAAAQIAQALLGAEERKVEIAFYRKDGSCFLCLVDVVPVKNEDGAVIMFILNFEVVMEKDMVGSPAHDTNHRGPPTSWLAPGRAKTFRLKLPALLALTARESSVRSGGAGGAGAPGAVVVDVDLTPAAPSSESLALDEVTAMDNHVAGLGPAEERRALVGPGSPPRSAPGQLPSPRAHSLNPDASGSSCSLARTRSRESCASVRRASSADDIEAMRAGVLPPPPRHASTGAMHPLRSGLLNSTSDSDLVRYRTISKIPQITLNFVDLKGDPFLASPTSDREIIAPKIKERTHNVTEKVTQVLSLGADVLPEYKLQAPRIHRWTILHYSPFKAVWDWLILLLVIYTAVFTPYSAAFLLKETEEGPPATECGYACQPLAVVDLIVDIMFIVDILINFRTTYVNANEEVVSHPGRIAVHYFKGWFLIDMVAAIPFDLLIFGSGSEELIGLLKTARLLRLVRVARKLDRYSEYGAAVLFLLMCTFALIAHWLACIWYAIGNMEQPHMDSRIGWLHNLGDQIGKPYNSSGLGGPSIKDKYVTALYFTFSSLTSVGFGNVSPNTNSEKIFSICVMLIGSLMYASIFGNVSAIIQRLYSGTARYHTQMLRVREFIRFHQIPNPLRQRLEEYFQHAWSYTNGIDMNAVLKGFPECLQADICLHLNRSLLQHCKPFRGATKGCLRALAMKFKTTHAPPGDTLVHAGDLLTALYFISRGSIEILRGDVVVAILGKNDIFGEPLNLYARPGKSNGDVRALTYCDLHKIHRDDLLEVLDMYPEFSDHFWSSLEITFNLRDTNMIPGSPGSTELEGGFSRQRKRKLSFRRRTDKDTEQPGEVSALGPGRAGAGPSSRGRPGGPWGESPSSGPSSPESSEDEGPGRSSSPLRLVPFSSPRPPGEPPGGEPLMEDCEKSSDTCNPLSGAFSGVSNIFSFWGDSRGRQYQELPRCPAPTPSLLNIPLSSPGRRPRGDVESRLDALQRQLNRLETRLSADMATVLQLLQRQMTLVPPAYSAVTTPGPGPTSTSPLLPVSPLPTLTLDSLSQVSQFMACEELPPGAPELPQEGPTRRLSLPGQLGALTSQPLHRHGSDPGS

[3] = cited from earlier work
[4] = Table 1, 100% = saturating ANP (10 nM), 0% = EC20 ANP, read-out: Emax (%)
[5] = Table 1, Formula (I-a), cGMP potentiation, ANP at EC20, read-out: EC50

In the case of `CN(C)CCN1CCCC(C(=O)Nc2nc3c(F)cc(C(F)(F)F)cc3s2)C1` (centres unmarked) [JUF-S3-004], the pIC50 [1] was < 5.30.

Molecule `Cc1cc(F)c2nc(NC(=O)C3CCCN(CCN(C)C)C3)sc2c1` (centres unmarked) [JUF-S3-005] has a pIC50 [1] of 6.05.

For `COc1cc(F)c2nc(NC(=O)C3CCCN(CCN(C)C)C3)sc2c1` (centres unmarked) [JUF-S3-006], the Emax ([1]; Table 3, 100% = saturating ANP (10 nM), 0% = EC20 ANP, read-out: Emax (%)) was 112% and the pIC50 [1] was 5.17.

With `CCOc1cc(F)c2nc(NC(=O)C3CCCN(CCN(C)C)C3)sc2c1` (centres unmarked) [JUF-S3-010] the pIC50 [1] was < 5.30.

With `CN(C)c1ccc(N2CCCC(C(=O)Nc3nc4c(F)cc(F)cc4s3)C2)cc1` (centres unmarked) [JUF-S4-009] the “GC-A activity (in words)” value [1] was “active”.

In the case of `O=C(Nc1nc2c(F)cc(F)cc2s1)C1CCCN(CCn2cccn2)C1` (centres unmarked) [JUF-S4-012], the “GC-A activity (in words)” value [1] was “tolerated” and the LLE ([1]; Table 1) was 2.91.

With `O=C(Nc1nc2c(F)cc(F)cc2s1)C1CCCN(CCN2CCCC2=O)C1` (centres unmarked) [JUF-S4-014] the “GC-A activity (in words)” value [1] was “loss of activity” and the Emax [1, 4] was 105%.

With `CN1CCC(N2CCCC(C(=O)Nc3nc4c(F)cc(F)cc4s3)C2)C1` (centres unmarked) [JUF-S4-015] the Emax [1, 4] was 89%, the LLE ([1]; Table 1) was 4.09- 4.39 and the pEC50 [1, 5] was 6.89.

In the case of `CN1CCCC(N2CCCC(C(=O)Nc3nc4c(F)cc(F)cc4s3)C2)C1` (centres unmarked) [JUF-S4-016], the Emax [1, 4] was 97%.

Molecule `Cn1cc(N2CCCC(C(=O)Nc3nc4c(F)cc(F)cc4s3)C2)cn1` (centres unmarked) [JUF-S4-023] has an Emax [1, 4] of 81 to 86% and a pEC50 [1, 5] of 5.31 to 5.68.

`O=C(Nc1nc2c(F)cc(F)cc2s1)C1CCCN(c2cccnc2)C1` (centres unmarked) [JUF-S4-025] showed an Emax [1, 4] of 104 to 135% and a pEC50 [1, 5] of 5.13 to 5.60.

In the case of `O=C(Nc1nc2c(F)cc(F)cc2s1)C1CCCN(c2ccncc2)C1` (centres unmarked) [JUF-S4-026], the “GC-A activity (in words)” value [1] was “active; also recorded: more active than MCUF-651”, the LLE ([1]; Table 1) was 3.28- 3.72 and the “hERG binding (in words)” value [2] was “did not result in selectivity over hERG binding”.

With `O=C(Nc1nc2c(F)cc(F)cc2s1)C1CCCN(C2CNC2)C1` (centres unmarked) [JUF-S4-029A] the Emax [1, 4] was 84 to 89% and the pEC50 [1, 5] was 6.70 to 7.10.

In the case of `CN1CC(N2CCCC(C(=O)Nc3nc4c(F)cc(F)cc4s3)C2)C1` (centres unmarked) [JUF-S4-029], the “GC-A activity (in words)” value [1] was “high potency in activation of GC-A”, the LLE ([1]; Table 1) was 5.11 and the “potency in activation of GC-A relative to MCUF-651” value ([1]; compared to MCUF-651) was ~ 10 fold. The “hERG binding (in words)” value [2] was “did not eliminate hERG binding”, the “toxicity from binding at hERG channel and other off-target toxicity (in words)” value [2] was “reduced toxicity” and the selectivity ratio ([2]; human, compared to MCUF-651, read-out: selectivity for GC-A vs hERG relative to MCUF-651) was 50 to 100.

With `CN(C)CCN1CC(C(=O)Nc2nc3c(F)cc(F)cc3s2)CCC1=O` (centres unmarked) [JUF-S11-001] the pEC50 ([1]; Table 2, Formula (I-b), cGMP potentiation, ANP at EC20, read-out: EC50) was < 5.30.

In the case of `O=C(Nc1nc2c(F)cc(F)cc2s1)C1CNCCN1C(=O)OCc1ccccc1` (centres unmarked) [JUF-S11-002A], the pIC50 [1] was < 5.30.

For `O=C(Nc1nc2c(F)cc(F)cc2s1)C1CNCCO1` (centres unmarked) [JUF-S11-003A], the pIC50 [1] was < 5.30.

For `CN(C)CCN1CCOC(C(=O)Nc2nc3c(F)cc(F)cc3s2)C1` (centres unmarked) [JUF-S11-003], the pIC50 [1] was < 5.30.

With `CN(C)CCN1CCCC(C(=O)Nc2nc3c(F)cc(F)cc3s2)C1` (centres unmarked) [MCUF 651, reference compound] the “Emax values of internal control” value ([1]; FIG. 2, titrated on each 384-test plate) was 80-100 % response and the pEC50 ([1]; FIG. 2, titrated on each 384-test plate, read-out: Acceptable EC50 values of internal control) was 6.22 to 6.70.

For `CN(C)CCN1CCCC(C(=O)Nc2nc3c(F)cc(F)cc3s2)C1` (centres unmarked) [MCUF-651], the Emax ([1]; control on each assay plate, read-out: Emax range of control compound) is given as 75 to 85%, the “in vivo activity (in words)” value [3] is given as “active in vivo” and the “oral bioavailability (in words)” value ([3]; in vivo, po) is given as “orally bioavailable”.
